What follows are compounds tested against T1, Solute carrier family 12 member 5 (Homo sapiens, UniProt Q9H2X9) (assay: KCC2 modulator potency by thallium flux, dose response, cell-based, HEK293 KCC2, FluoZin-2 fluorescence (AID 1736)). Settings: not given.
T1 sequence (Q9H2X9 whole entry): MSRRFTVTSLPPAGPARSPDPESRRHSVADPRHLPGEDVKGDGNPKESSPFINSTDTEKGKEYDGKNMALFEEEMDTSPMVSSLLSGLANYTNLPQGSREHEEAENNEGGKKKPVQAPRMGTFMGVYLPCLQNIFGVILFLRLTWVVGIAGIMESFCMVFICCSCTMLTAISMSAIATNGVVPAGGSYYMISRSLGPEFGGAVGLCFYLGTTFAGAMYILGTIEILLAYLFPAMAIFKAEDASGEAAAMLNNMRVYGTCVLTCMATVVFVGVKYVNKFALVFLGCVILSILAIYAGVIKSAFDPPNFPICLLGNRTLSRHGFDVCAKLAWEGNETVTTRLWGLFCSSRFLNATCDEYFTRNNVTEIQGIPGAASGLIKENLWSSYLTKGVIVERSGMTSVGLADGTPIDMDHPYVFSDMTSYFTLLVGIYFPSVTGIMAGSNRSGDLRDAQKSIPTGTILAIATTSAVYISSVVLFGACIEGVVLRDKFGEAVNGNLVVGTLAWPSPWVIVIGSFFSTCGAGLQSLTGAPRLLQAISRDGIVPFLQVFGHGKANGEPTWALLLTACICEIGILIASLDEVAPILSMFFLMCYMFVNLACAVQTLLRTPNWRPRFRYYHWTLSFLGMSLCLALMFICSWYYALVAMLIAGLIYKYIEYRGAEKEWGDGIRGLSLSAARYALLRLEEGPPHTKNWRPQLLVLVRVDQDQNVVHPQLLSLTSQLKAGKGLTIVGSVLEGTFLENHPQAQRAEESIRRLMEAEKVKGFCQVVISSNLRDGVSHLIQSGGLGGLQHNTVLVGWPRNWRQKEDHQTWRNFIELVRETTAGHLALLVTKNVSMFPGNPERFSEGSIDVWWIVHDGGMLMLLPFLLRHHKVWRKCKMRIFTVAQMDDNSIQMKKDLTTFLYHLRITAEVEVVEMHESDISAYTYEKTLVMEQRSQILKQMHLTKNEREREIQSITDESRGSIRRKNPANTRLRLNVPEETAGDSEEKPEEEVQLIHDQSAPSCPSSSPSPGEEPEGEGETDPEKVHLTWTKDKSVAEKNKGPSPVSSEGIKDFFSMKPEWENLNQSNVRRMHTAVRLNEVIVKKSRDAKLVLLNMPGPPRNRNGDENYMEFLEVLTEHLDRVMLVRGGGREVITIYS
For `COC(=O)c1sccc1NC(=S)OC` [3-(methoxycarbothioylamino)thiophene-2-carboxylic acid methyl ester], the EC50 was 1.78 µM.
With `O=C(Nc1ccc(Cc2ccncc2)cc1)c1cccc([N+](=O)[O-])c1` [3-Nitro-N-(4-pyridin-4-ylmethyl-phenyl)-benzamide] the EC50 was 15.3 µM.
Work on `O=C(Cn1nnc2c(cnn2-c2ccccc2)c1=O)N1CCN(c2ccccc2F)CC1` [3-[2-[4-(2-fluorophenyl)-1-piperazinyl]-2-oxoethyl]-7-phenyl-4-pyrazolo[3,4-d]triazinone] yielded an EC50 of 147 µM.
Compound `O=C(O)CCc1cc(I)c(Oc2ccc(O)c(I)c2)c(I)c1` [3-[4-(4-hydroxy-3-iodophenoxy)-3,5-diiodophenyl]propanoic acid] has an EC50 of 5.39 µM.
With `Cc1ccc(C(=O)O)cc1-c1ccc(C=C2NC(=O)N(c3ccccc3)C2=O)o1` [3-[5-[(E)-(2,5-dioxo-1-phenylimidazolidin-4-ylidene)methyl]furan-2-yl]-4-methylbenzoic acid] the EC50 was 14.8 µM.
In the case of `O=C(O)CCN(Cc1ccccc1)S(=O)(=O)c1c(Cl)cccc1Cl` [3-[(2,6-dichlorophenyl)sulfonyl-(phenylmethyl)amino]propanoic acid], the EC50 is reported as 59.2 µM.
`Cc1ccc(S(=O)(=O)N(CCC(=O)O)Cc2ccc(Cl)cc2)cc1` [3-[(4-chlorobenzyl)-tosyl-amino]propionic acid] was tested, and the EC50 was 0.491 µM.
`Fc1ccc(CSc2nncn2NC/C=C/c2ccccc2)cc1` [3-[(4-fluorobenzyl)thio]-N-(3-phenyl-2-propen-1-yl)-4H-1,2,4-triazol-4-amine] showed an EC50 of 30.2 µM.
In the case of `CC1(CCc2ccccc2)NC(=O)N(Cc2nnc(-c3ccccc3Br)o2)C1=O` (configuration not stated) [3-[[5-(2-bromophenyl)-1,3,4-oxadiazol-2-yl]methyl]-5-methyl-5-(2-phenylethyl)imidazolidine-2,4-dione], the EC50 is reported as 14.3 µM.
`O=C(OCC(=O)N1CCN(C(=O)c2ccco2)CC1)c1sc2ccccc2c1Cl` [3-chloro-1-benzothiophene-2-carboxylic acid [2-[4-[2-furanyl(oxo)methyl]-1-piperazinyl]-2-oxoethyl] ester] showed an EC50 of 0.478 µM.
`CCOc1cc(S(=O)(=O)NCc2ccccc2)ccc1F` [3-ethoxy-4-fluoranyl-N-(phenylmethyl)benzenesulfonamide] gave an EC50 of 5.92 µM.
`C=C(C)Cn1c(N2CCC(Cc3ccccc3)CC2)nc2c1c(=O)[nH]c(=O)n2C` [3-methyl-7-(2-methylprop-2-enyl)-8-[4-(phenylmethyl)-1-piperidinyl]purine-2,6-dione] showed an EC50 of 20.4 µM.
In the case of `COCCNS(=O)(=O)c1ccc(-c2ccc(Cl)cc2)cc1` [4'-chloro-N-(2-methoxyethyl)-4-biphenylsulfonamide], the EC50 is reported as 6 µM.
Compound `Cc1c(N=C2Nc3cccc4cccc2c34)c(=O)n(-c2ccccc2)n1C` [4-(2-benzo[cd]indolylamino)-1,5-dimethyl-2-phenyl-3-pyrazolone] has an EC50 of 1.48 µM.
In the case of `O=C(OCC(=O)N1CCc2ccccc2C1)c1ccc(N2CCOCC2)c([N+](=O)[O-])c1` [4-(4-morpholinyl)-3-nitrobenzoic acid [2-(3,4-dihydro-1H-isoquinolin-2-yl)-2-oxoethyl] ester], the EC50 is reported as 5.37 µM.
Work on `O=C(NC(=S)NNC(=O)c1cnccn1)c1ccc(Cl)cc1` [4-Chloro-N-[N'-(pyrazine-2-carbonyl)-hydrazinocarbothioyl]-benzamide] yielded an EC50 of 23.3 µM.
`CCOC(=O)c1cc2c(ccn2-c2ccc(F)cc2)n1CC(=O)NC(C)(C)C` [4-[2-(tert-butylamino)-2-keto-ethyl]-1-(4-fluorophenyl)pyrrolo[3,2-b]pyrrole-5-carboxylic acid ethyl ester] was tested, and the EC50 was 51100 µM.
`COc1ccc(-c2cc(CCCC(=O)NCCc3ccccc3)no2)cc1` [4-[5-(4-methoxyphenyl)-1,2-oxazol-3-yl]-N-(2-phenylethyl)butanamide] gave an EC50 of 0.725 µM.
With `COCCN1C(=O)/C(=C/c2ccc(OCc3ccc(C(=O)O)cc3)c(OC)c2)S/C1=N/c1ccccc1` [4-[(2-methoxy-4-{[3-(2-methoxyethyl)-4-oxo-2-(phenylimino)-1,3-thiazolidin-5-ylidene]methyl}phenoxy)methyl]benzoic acid] the EC50 was 44.9 µM.
`Cc1n[nH]c(O)c1C(c1ccc(-c2ccc(F)cc2)o1)c1c(C)n[nH]c1O` [4-[[5-(4-fluorophenyl)furan-2-yl]-(3-methyl-5-oxo-1,2-dihydropyrazol-4-yl)methyl]-5-methyl-1,2-dihydropyrazol-3-one] was tested, and the EC50 was 8.39 µM.
Work on `CCOc1cc(Br)ccc1S(=O)(=O)NCc1ccccc1` [4-bromanyl-2-ethoxy-N-(phenylmethyl)benzenesulfonamide] yielded an EC50 of 14.7 µM.
For `O=S(=O)(Nc1nc2ccccc2nc1N1CCN(c2ccccn2)CC1)c1ccc(Cl)cc1` [4-chloranyl-N-[3-(4-pyridin-2-ylpiperazin-1-yl)quinoxalin-2-yl]benzenesulfonamide], the EC50 was 6.8 µM.
With `COc1ccc(S(=O)(=O)N(C)CC(=O)N2CCN(Cc3ccccc3)CC2)cc1C` [4-methoxy-N,3-dimethyl-N-[2-oxidanylidene-2-[4-(phenylmethyl)piperazin-1-yl]ethyl]benzenesulfonamide] the EC50 was 1.49 µM.
Compound `Cc1ccc(CSCCNC(=O)c2ccc(C)cc2)cc1` [4-methyl-N-[2-[(4-methylbenzyl)thio]ethyl]benzamide] has an EC50 of 2690 µM.
For `O=C(NCC1CCCN(C(=O)c2cccnc2)C1)c1ccc(-c2ccccc2)cc1` (configuration not stated) [4-phenyl-N-[(1-pyridin-3-ylcarbonylpiperidin-3-yl)methyl]benzamide], the EC50 was 2.85 µM.
`Sc1nnc(Cc2cccc3ccccc23)o1` [5-(1-naphthalenylmethyl)-3H-1,3,4-oxadiazole-2-thione] gave an EC50 of 0.304 µM.
For `Sc1nnc(C2(c3ccccc3)CCCC2)o1` [5-(1-phenylcyclopentyl)-3H-1,3,4-oxadiazole-2-thione], the EC50 was 3.3 µM.
In the case of `Sc1nnc(Cc2c[nH]c3ccccc23)o1` [5-(1H-indol-3-ylmethyl)-1,3,4-oxadiazole-2(3H)-thione], the EC50 is reported as 16.1 µM.
Work on `O=C(OCc1ccccn1)c1ccc(COc2ccccc2Cl)o1` [5-(2-Chloro-phenoxymethyl)-furan-2-carboxylic acid pyridin-2-ylmethyl ester] yielded an EC50 of 14.3 µM.
Work on `N#Cc1nc(Cc2cccc3ccccc23)oc1NCCN1CCOCC1` [5-(2-Morpholin-4-yl-ethylamino)-2-naphthalen-1-ylmethyl-oxazole-4-carbonitrile] yielded an EC50 of 5.4 µM.
Compound `COc1cccc(Nc2nnc(S)s2)c1` [5-(3-methoxyanilino)-3H-1,3,4-thiadiazole-2-thione] has an EC50 of 3.05 µM.
In the case of `Sc1nnc(COc2ccc(Cl)cc2)o1` [5-(4-Chloro-phenoxymethyl)-3H-[1,3,4]oxadiazole-2-thione], the EC50 is reported as 9.34 µM.
For `N#Cc1nc(-c2cccs2)oc1N1CCN(Cc2ccccc2)CC1` [5-(4-benzyl-1-piperazinyl)-2-(2-thienyl)-1,3-oxazole-4-carbonitrile], the EC50 was 3.58 µM.
`N#Cc1nc(Cc2cccc3ccccc23)oc1N1CCOCC1` [5-(4-morpholinyl)-2-(1-naphthalenylmethyl)-4-oxazolecarbonitrile] gave an EC50 of 1.32 µM.
With `Cc1cccc(OCCc2nnc(N)s2)c1C` [5-[2-(2,3-Dimethyl-phenoxy)-ethyl]-[1,3,4]thiadiazol-2-ylamine] the EC50 was 37.5 µM.
`Sc1nnc(CCc2ccc(Cl)cc2)o1` [5-[2-(4-chlorophenyl)ethyl]-1,3,4-oxadiazole-2-thiol] gave an EC50 of 0.991 µM.
`COc1cccc(C=c2sc(=CC(=O)c3ccc(C)cc3)[nH]c2=O)c1OC` [5-[(2,3-dimethoxyphenyl)methylidene]-2-[2-(4-methylphenyl)-2-oxidanylidene-ethylidene]-1,3-thiazolidin-4-one] showed an EC50 of 15.5 µM.

Same assay, conditions: inactive by the depositor's call
For `O=C(CCCn1ncn2c(cc3occc32)c1=O)N1CCc2ccccc2C1` [3-[4-(3,4-dihydro-1H-isoquinolin-2-yl)-4-keto-butyl]furo[3,4]pyrrolo[3,5-c][1,2,4]triazin-4-one], the EC50 was 44.2 µM.
Compound `Fc1ccccc1CSc1nncn1NC/C=C/c1ccccc1` [3-[(2-fluorophenyl)methylsulfanyl]-N-[(E)-3-phenylprop-2-enyl]-1,2,4-triazol-4-amine] has an EC50 of 0.0567 µM.
Compound `O=c1oc2ccccc2c(Nc2cc3ccccc3cc2O)c1[N+](=O)[O-]` [3-nitro-4-[(3-oxidanylnaphthalen-2-yl)amino]chromen-2-one] has an EC50 of 11.4 µM.
Compound `COc1ccc(C(=O)NC(=S)N2CCN(c3ccc([N+](=O)[O-])cc3)CC2)cc1` [4-methoxy-N-[4-(4-nitrophenyl)piperazin-1-yl]carbothioyl-benzamide] has an EC50 of 0.178 µM.
`CSc1sc(-c2nnc(S)n2C)c2c1C=CCC2` [4-methyl-3-[3-(methylthio)-6,7-dihydro-2-benzothiophen-1-yl]-1H-1,2,4-triazole-5-thione] showed an EC50 of 15.7 µM.

Reference: BindingDB's records for doi:10.7270/Q2TX3CSC (Vanderbilt Screening Center for GPCRs, Ion Channels and …, 2009)
